Assays:
Conditions in all cases: incubation time: 72 h
BT-549 [1] = experiment: drug sensitivity score (DSS), CellTiter-Blue viability (DSS (AUC-based score)); higher = stronger viability inhibition; extreme values may be limits of the assay
Experimental: (§1)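 DSRT with the CellTiter-Blue (resazurin reduction) viability readout, fluorescence 560/590 nm, 72 h incubation. Plates were normalised to DMSO and benzethonium chloride controls. DSS is computed from the area under the fitted dose-response curve (5 or 9 concentrations).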

MDA-MB-453 [2] = experiment: as above
Experimental: as §1

MDA-MB-468 = experiment: as above
Experimental: as §1

HCC1937 [3] = experiment: as above
Experimental: as §1

CAL-85-1 = experiment: as above
Experimental: as §1

CAL-51 [4] = experiment: as above
Experimental: as §1

HDQ-P1 = experiment: as above
Experimental: as §1

DU-4475 [5] = experiment: as above
Experimental: as §1

MDA-MB-436 [6] = experiment: as above
Experimental: as §1

Hs578T [7] = experiment: as above
Experimental: as §1

HCC1599 = experiment: as above
Experimental: as §1

CAL-120 [8] = experiment: as above
Experimental: as §1

MFM-223 [9] = experiment: as above
Experimental: as §1

SK-BR-3 = experiment: as above
Experimental: as §1

CAL-148 [10] = experiment: as above
Experimental: as §1

MDA-MB-231 = experiment: as above
Experimental: as §1

BT-549 [11] = experiment: normalised response (% of control), CellTiter-Glo; higher = more viable cells (100 = DMSO, 0 = benzethonium chloride kill control)
In short: (§2)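 Normalised signals at single concentrations make up the values. They come from breast cancer cell lines seeded (20 µl suspension) into 384-well plates with compound at 5 concentrations in 10-fold steps over a compound-specific 10,000-fold range, incubated 72 h, and read for CellTox Green fluorescence then CellTiter-Glo luminescence. Each plate was normalised to 0.1 % DMSO (100) and a positive kill control (0).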

MDA-MB-453 [12] = experiment: as above
In short: as §2

HCC1937 [13] = experiment: as above
In short: as §2

CAL-51 [14] = experiment: as above
In short: as §2

DU-4475 [15] = experiment: as above
In short: as §2

MDA-MB-436 [16] = experiment: as above
In short: as §2

BT-474 = experiment: as above
In short: as §2

Hs578T [17] = experiment: as above
In short: as §2

CAL-120 [18] = experiment: as above
In short: as §2

MFM-223 [19] = experiment: as above
In short: as §2

CAL-148 [20] = experiment: as above
In short: as §2

SMILES | drug sensitivity score (BT-549 [1]) | drug sensitivity score (MDA-MB-453 [2]) | drug sensitivity score (MDA-MB-468) | drug sensitivity score (HCC1937 [3]) | drug sensitivity score (CAL-85-1) | drug sensitivity score (CAL-51 [4]) | drug sensitivity score (HDQ-P1) | drug sensitivity score (DU-4475 [5]) | drug sensitivity score (MDA-MB-436 [6]) | drug sensitivity score (Hs578T [7]) | drug sensitivity score (HCC1599) | drug sensitivity score (CAL-120 [8]) | drug sensitivity score (MFM-223 [9]) | drug sensitivity score (SK-BR-3) | drug sensitivity score (CAL-148 [10]) | drug sensitivity score (MDA-MB-231) | normalised response (BT-549 [11]) | normalised response (MDA-MB-453 [12]) | normalised response (HCC1937 [13]) | normalised response (CAL-51 [14]) | normalised response (DU-4475 [15]) | normalised response (MDA-MB-436 [16]) | normalised response (BT-474) | normalised response (Hs578T [17]) | normalised response (CAL-120 [18]) | normalised response (MFM-223 [19]) | normalised response (CAL-148 [20])
C[C@]12CC[C@@H]3c4ccc(OC(=O)N(CCCl)CCCl)cc4CC[C@H]3[C@@H]1CC[C@@H]2O [Estramustine] | 0 | 0 | 0 | 0 | 0 | 0 | 0 | 0 | 0 | 0 | 0 | 0 | 0 | 0 | 0 | 0 | – | – | – | – | – | – | – | – | – | – | –
C[C@]1(O)C[C@@H](c2nc(-c3ccc4ccc(-c5ccccc5)nc4c3)c3c(N)nccn32)C1 [OSI-906] | 3.58 | 0 | 0 | 4.24 | 1.93 | 1.03 | 6.19 | 0 | 0 | 2 | 3.98 | 0 | 0 | 6.92 | 0 | 0 | – | – | – | – | – | – | – | – | – | – | –
COc1cc2c(cc1O)CC[C@@H]1[C@@H]2CC[C@]2(C)[C@@H](O)CC[C@@H]12 [2-methoxyestradiol] (1000 nM) | – | – | – | – | – | – | – | – | – | – | – | – | – | – | – | – | 49.5% | 72.7% | 89.6% | 92.9% | 98.5% | 74.2% | 68.9% | 77.3% | 81.8% | 75.3% | 96.4%
CC1=C2C[C@H]3[C@@H](CC=C4C[C@@H](O)CC[C@@]43C)[C@@H]2CC[C@]12O[C@@H]1C[C@H](C)CN[C@H]1[C@H]2C [Cyclopamine] (1000 nM) | – | – | – | – | – | – | – | – | – | – | – | – | – | – | – | – | 92.4% | 108% | 98.5% | 68% | 99.5% | 101% | 95.7% | 111% | 106% | 110% | 105%
Nc1nc2[nH]cnc2c(=S)[nH]1 [Thioguanine] | 0.924 | 0 | 7.48 | 3.55 | 3.32 | 0.794 | 0 | 0 | 4.56 | 2.55 | 0 | 7.28 | 0 | 0.902 | 2.39 | 8.63 | – | – | – | – | – | – | – | – | – | – | –
CC(=O)c1c(C)c2cnc(Nc3ccc(N4CCNCC4)cn3)nc2n(C2CCCC2)c1=O | 0 | 8.21 | 0 | 0 | 0 | 5.13 | 0 | 0 | 0 | 2.19 | 0 | 8.76 | 0 | 0 | 0 | 9.09 | – | – | – | – | – | – | – | – | – | – | –
Cn1cc(C2=Nc3cc(NC(=O)C(N)C4CCCCC4)cc4c3C2=CNNC4=O)cn1 (configuration not stated) (1000 nM) | – | – | – | – | – | – | – | – | – | – | – | – | – | – | – | – | 25.7% | 35.9% | 87% | 81.6% | 89% | 53.3% | 68.5% | 41.3% | 69.7% | 46.4% | 83.8%
COc1cc2c(cc1O)CC[C@@H]1[C@@H]2CC[C@]2(C)[C@@H](O)CC[C@@H]12 [2-methoxyestradiol] | 10.5 | 9.7 | 2.79 | 9.5 | 5.36 | 5.78 | 5.38 | 6.57 | 7.65 | 9.08 | 0 | 8.63 | 0 | 2.73 | 0 | 11.2 | – | – | – | – | – | – | – | – | – | – | –
CC1(C)CNc2cc(NC(=O)c3cccnc3NCc3ccncc3)ccc21 [Motesanib] (1000 nM) | – | – | – | – | – | – | – | – | – | – | – | – | – | – | – | – | 97.6% | 101% | 101% | 85.7% | 98.4% | 103% | 91.9% | 96.4% | 92.3% | 91% | 86.4%
Nc1nc2[nH]cnc2c(=S)[nH]1 [Thioguanine] (1000 nM) | – | – | – | – | – | – | – | – | – | – | – | – | – | – | – | – | 94.2% | 94.3% | 59.9% | 91.9% | 88.5% | 83.8% | 44.8% | 78.3% | 79% | 93.7% | 93.4%
O=C1CN2Cc3c(ccc(Cl)c3Cl)N=C2N1 [Anagrelide] (1000 nM) | – | – | – | – | – | – | – | – | – | – | – | – | – | – | – | – | 95.1% | 101% | 96.8% | 88.4% | 98% | 95.8% | 90.7% | 88.7% | 93.6% | 102% | 95%
CC(C)(C)c1cnc(CSc2cnc(NC(=O)C3CCNCC3)s2)o1 [SNS-032] | 17.6 | 20 | 16.5 | 20.4 | 22.1 | 13.8 | 21.3 | 20.1 | 15 | 23.1 | 18 | 18.9 | 17.5 | 22 | 19.6 | 21.1 | – | – | – | – | – | – | – | – | – | – | –
Nc1ncn([C@@H]2O[C@H](CO)[C@@H](O)[C@H]2O)c(=O)n1 [Azacitidine] | 3.42 | 0 | 11.3 | 5.11 | 0 | 0 | 0 | 0 | 3.01 | 3.33 | 0 | 0.768 | 0 | 0 | 0 | 0 | – | – | – | – | – | – | – | – | – | – | –
Oc1ncnc2[nH]ncc12 [Allopurinol] (1000 nM) | – | – | – | – | – | – | – | – | – | – | – | – | – | – | – | – | 99.7% | 107% | 94.3% | 123% | 105% | 100% | 101% | 109% | 98.8% | 108% | 99.2%
Cn1cnc2c(F)c(Nc3ccc(Br)cc3Cl)c(C(=O)NOCCO)cc21 [Selumetinib] (1000 nM) | – | – | – | – | – | – | – | – | – | – | – | – | – | – | – | – | 96.5% | 106% | 84.7% | 110% | 4.56% | 90.7% | 67.8% | 93.4% | 85.1% | 92.2% | 79.4%
CC[C@@H]1C(=O)OC[C@@H]1Cc1cncn1C [Pilocarpine] (4000 nM) | – | – | – | – | – | – | – | – | – | – | – | – | – | – | – | – | 97.6% | 98.9% | 92.6% | 96.8% | 97% | 91.5% | 92.2% | 105% | 95.7% | 94.1% | 91.6%
Cc1sc2c(c1C)C(c1ccc(Cl)cc1)=N[C@@H](CC(=O)OC(C)(C)C)c1nnc(C)n1-2 [(+)JQ1] (1000 nM) | – | – | – | – | – | – | – | – | – | – | – | – | – | – | – | – | 43.5% | 46.1% | 80.8% | 103% | 56.6% | 83.2% | 69.9% | 48.8% | 73.4% | 58.2% | 71.5%
O=C1CN2Cc3c(ccc(Cl)c3Cl)N=C2N1 [Anagrelide] | 0 | 0 | 0 | 2.41 | 0 | 4.77 | 0 | 0 | 0 | 0 | 0 | 0 | 0 | 0 | 0 | 0 | – | – | – | – | – | – | – | – | – | – | –
O=NN(CCCl)C(=O)NCCCl [Carmustine] (1000 nM) | – | – | – | – | – | – | – | – | – | – | – | – | – | – | – | – | 101% | 102% | 99.8% | 121% | 98.9% | 101% | 95.5% | 102% | 96.6% | 97.6% | 91.3%
Nc1ncn([C@@H]2O[C@H](CO)[C@@H](O)[C@H]2O)c(=O)n1 [Azacitidine] (1000 nM) | – | – | – | – | – | – | – | – | – | – | – | – | – | – | – | – | 80.5% | 96.8% | 90.9% | 119% | 90.5% | 79.1% | 96.7% | 102% | 91.1% | 96.7% | 96.2%
CC(=O)O[C@@]12CO[C@@H]1C[C@H](O)[C@@]1(C)C(=O)[C@H](O)C3=C(C)[C@@H](OC(=O)[C@H](O)[C@@H](NC(=O)OC(C)(C)C)c4ccccc4)C[C@@](O)([C@@H](OC(=O)c4ccccc4)[C@H]21)C3(C)C [Docetaxel] (100 nM) | – | – | – | – | – | – | – | – | – | – | – | – | – | – | – | – | 16% | 45.3% | 68.3% | 27.4% | 34.7% | 31.6% | 38.3% | 13% | 56.3% | 40% | 36.6%
CC(C)(C)c1cnc(CSc2cnc(NC(=O)C3CCNCC3)s2)o1 [SNS-032] (1000 nM) | – | – | – | – | – | – | – | – | – | – | – | – | – | – | – | – | 8.17% | 25.5% | 26.1% | 9.15% | 6.57% | 17.6% | 20.2% | 13% | 36.9% | 18.9% | 53.8%

Source: the supplement of paper PMC4862054
